Measured values: patent US10028938B2, “Antiviral agents and uses thereof” (Griffith University, priority 2014, dated 2018)
Like-named read-outs stand apart in the source and are kept apart here.

Assays:
hPIV-3 [1] = assay: In situ ELISA virus growth inhibition; assay type: cell-based, hPIV-3 (strain C-243)
hPIV-3 HN [2] = biological target: T1, hPIV-3 HN (UniProt P08492); assay type: biochemical, hPIV-3 (strain C-243); set-up: rows headed: NI hPIV-3 IC50; conditions: read-out: NI hPIV-3 IC50
T1 sequence (P08492 1-572): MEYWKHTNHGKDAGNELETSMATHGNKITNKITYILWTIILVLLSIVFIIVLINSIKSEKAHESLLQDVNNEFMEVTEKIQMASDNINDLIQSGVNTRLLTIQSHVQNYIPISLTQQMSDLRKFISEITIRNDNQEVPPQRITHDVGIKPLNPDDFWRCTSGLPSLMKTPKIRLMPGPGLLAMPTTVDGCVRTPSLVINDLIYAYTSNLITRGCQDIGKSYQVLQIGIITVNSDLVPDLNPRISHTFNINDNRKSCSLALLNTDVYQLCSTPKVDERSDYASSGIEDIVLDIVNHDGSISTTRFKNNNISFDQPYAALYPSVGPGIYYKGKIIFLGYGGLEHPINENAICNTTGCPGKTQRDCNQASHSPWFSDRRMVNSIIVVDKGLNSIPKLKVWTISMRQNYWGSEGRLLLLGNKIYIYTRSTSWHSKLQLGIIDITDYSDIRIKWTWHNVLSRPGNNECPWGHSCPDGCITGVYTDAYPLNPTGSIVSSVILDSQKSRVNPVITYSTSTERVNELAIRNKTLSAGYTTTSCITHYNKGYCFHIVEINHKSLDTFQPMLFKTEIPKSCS

hPIV-3 HN [3] = biological target: T1, hPIV-3 HN; assay type: biochemical, hPIV-3 (strain C-243); set-up: rows headed: HI Mean IC50; hPIV-3 HN; 3 independent experiments; fold improvement in HI assay; other: versus 6; hPIV-3 HN HI IC50; other: text; other: text, unit given as M
hPIV-3 HN [4] = biological target: T1, hPIV-3 HN; assay type: biochemical, hPIV-3 (strain C-243); set-up: rows headed: NI Mean IC50; hPIV-3 HN; 3 independent experiments; Ki; Km value for MUN; other: whole hPIV-3 virus, [I]=0; fold improvement in NI assay; other: versus 6; hPIV-3 HN NI IC50; other: text; other: text, unit given as M
hPIV-3 [5] = assay: Virus growth inhibition assay, titration of progeny virus (focus forming assay) in LLC-MK2 cells; assay type: cell-based, hPIV-3 (strain C-243)
LLC-MK2 cells = assay: MTT assay for compound cytotoxicity; conditions: 48 h, 30 μM, highest concentration tested
Description: Infection was performed in duplicate and continued for 1 h at 37° C. with gentle agitation every 15 min. Inocula were removed and replaced with 500 μL/well of each respective 2 μM compound dilution (in EMEMinf).

hPIV-1 NI = hPIV-1 NI (Human parainfluenza 1 virus, UniProt P16071); assay: biochemical
Chain of hPIV-1 NI (P16071 whole entry): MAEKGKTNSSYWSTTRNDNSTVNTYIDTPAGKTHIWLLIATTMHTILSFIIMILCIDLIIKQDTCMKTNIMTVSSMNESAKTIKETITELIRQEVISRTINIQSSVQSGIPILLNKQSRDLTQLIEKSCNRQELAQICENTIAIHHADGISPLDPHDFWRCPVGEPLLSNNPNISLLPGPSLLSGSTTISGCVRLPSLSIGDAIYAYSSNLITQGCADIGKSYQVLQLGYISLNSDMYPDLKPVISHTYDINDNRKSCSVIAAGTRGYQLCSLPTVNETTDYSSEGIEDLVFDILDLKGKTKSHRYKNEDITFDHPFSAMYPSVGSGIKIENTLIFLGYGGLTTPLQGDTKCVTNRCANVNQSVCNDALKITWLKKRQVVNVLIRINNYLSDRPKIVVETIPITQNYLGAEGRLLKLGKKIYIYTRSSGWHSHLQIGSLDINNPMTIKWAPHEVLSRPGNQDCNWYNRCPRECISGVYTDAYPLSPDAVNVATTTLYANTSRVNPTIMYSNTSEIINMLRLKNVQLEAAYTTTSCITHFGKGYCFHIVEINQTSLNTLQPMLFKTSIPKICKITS
Description: IC50 values for a number of compounds of the first aspect were determined by standard assay methods previously described in Guillon, P et al, Nature Communications (2014).

hPIV-3 HN [6] = biological target: T2, hPIV-3 HN (Human parainfluenza 3 virus, UniProt P08492); assay type: biochemical, hPIV-3 (strain C-243); conditions: Table 5; read-out: hPIV-3 NI (IC50 values)
hPIV-3 HN [7] = biological target: T1, hPIV-3 HN; assay type: biochemical, hPIV-3 (strain C-243); set-up: rows headed: NI Mean IC50; hPIV-3 HN; 3 independent experiments; Ki; Km value for MUN; other: whole hPIV-3 virus, [I]=0; fold improvement in NI assay; other: versus 6; hPIV-3 HN NI IC50; other: text; other: text, unit given as M; remark: listed apart in the source
hPIV-3 HN [8] = biological target: T2, hPIV-3 HN; assay type: binding; conditions: 20 μM hPIV-3 HN, protein:ligand 1:100
[9] = Human respirovirus 3, Table 4, A549 cells, hPIV-3, read-out: Cell-based ELISA IC50
[10] = Table 2 prints no unit, μM, hPIV-3 HN, 3 independent experiments, read-out: HI Mean IC50
[11] = Table 2 prints no unit, μM, hPIV-3 HN, 3 independent experiments, read-out: NI Mean IC50

## COCc1cn(C2C(NC(=O)C(C)C)C(C(O)C(O)CO)OC(F)(C(=O)O)C2F)nn1 (stereo not shown) [I-104]
hPIV-3 [1]; [9]
  IC50: 25 µM
hPIV-3 HN [2]; Table 4
  IC50: 4 µM

## CC(C)C(=O)NC1C(O)C=C(C(=O)O)OC1C(O)C(O)CO (stereo not shown) [Compound 5, reference compound]
hPIV-3 HN [3]; [10]
  IC50: 358 µM
hPIV-3 HN [4]; [11]
  IC50: 188 µM

## CC(C)C(=O)N[C@H]1[C@H]([C@H](O)[C@H](O)CO)OC(C(=O)[O-])=C[C@@H]1n1cc(-c2ccccc2)nn1.[Na+] [Compound 10, Sodium 2,6-anhydro-3,4,5-trideoxy-5-isobutyramido-4-(4-phenyl-[1,2,3,]triazol-1-yl)-D-glycero-D-galacto-non-2-enonate]
hPIV-3 [1]; Human respirovirus 3, A549, read-out: Virus growth IC50 (in situ ELISA)
  IC50: 10.3 ± 0.3 µM
hPIV-3 [1]; Human respirovirus 3, LLC-MK2, read-out: Virus growth IC50 (in situ ELISA)
  IC50: 2.1 ± 0.6 µM
hPIV-3 [1]; Human respirovirus 3, NHBE, read-out: Virus growth IC50 (in situ ELISA)
  IC50: 13.9 ± 0.7 µM
hPIV-3 [1]; Human respirovirus 3, read-out: Virus growth inhibition IC50, range over all three cell lines
  IC50: 2.1 to 13.9 µM
hPIV-3 [1]; LLC-MK2 cells, versus 6
  times more potent than 6, cell-based assay: ~26 times
hPIV-3 [5]; Human respirovirus 3, LLC-MK2, 48 h, read-out: Virus growth inhibition (reduction in virus titre)
  inhibition at 2 µM: 94%
LLC-MK2 cells
  Cytotoxic effect (MTT): No cytotoxic effect

## COCc1cn([C@H]2C=C(C(=O)O)O[C@@H]([C@H](O)[C@H](O)CO)[C@@H]2NC(C)=O)nn1 [Compound 7, Sodium 5-acetamido-2,6-anhydro-3,4,5-trideoxy-4-(4-methoxymethyl-[1,2,3,]triazol-1-yl)-D-glycero-D-galacto-non-2-enonate]
hPIV-3 HN [3]; [10]
  IC50: 312 µM
hPIV-3 HN [3]; read-out: hPIV-3 HN HI IC50
  IC50: 313 µM
hPIV-1 NI
  IC50: 19.8 µM
hPIV-3 HN [6]
  IC50: 148 µM
hPIV-3 HN [4]; [11]
  IC50: 154 µM
hPIV-3 HN [4]; read-out: hPIV-3 HN NI IC50
  IC50: 154 µM

## CC(=O)N[C@H]1[C@H]([C@H](O)[C@H](O)CO)O[C@@](Oc2ccc3c(C)cc(=O)oc3c2)(C(=O)O)C[C@@H]1O [MUN, 2′-(4-methylumbelliferyl) […]-D-N-acetylneuraminide]
hPIV-3 HN [7]; read-out: Km value for MUN
  Km: 5.1 mM

## CC(C)C(=O)NC1C([C@H](O)[C@H](O)CO)OC(F)(C(=O)O)C(F)C1n1cc(-c2ccccc2)nn1 (stereo partly shown) [I-79]
hPIV-3 [1]; [9]
  IC50: 45 µM
hPIV-3 HN [2]; Table 4
  IC50: 63 µM

## CC(=O)N[C@H]1[C@H]([C@H](O)[C@H](O)CO)OC(C(=O)[O-])=C[C@@H]1n1cc(-c2ccccc2)nn1.[Na+] [Compound 8, Sodium 5-acetamido-2,6-anhydro-3,4,5-trideoxy-4-(4-phenyl-[1,2,3,]triazol-1-yl)-D-glycero-D-galacto-non-2-enonate]
hPIV-3 HN [3]; [10]
  IC50: 4.58 µM
hPIV-3 HN [3]; read-out: hPIV-3 HN HI IC50
  IC50: 4.6 µM
hPIV-1 NI
  IC50: 168 µM
hPIV-3 HN [8]; reference signal
  Relative STD NMR effect, ArH4′: 100%
hPIV-3 HN [8]; relative to ArH4′
  Relative STD NMR effect, ArH2′ ArH6′: 92%
  Relative STD NMR effect, ArH3′ ArH5′: 100%
  Relative STD NMR effect, H3: 85%
  Relative STD NMR effect, H4: 59%
  Relative STD NMR effect, H5: 50%
  Relative STD NMR effect, H6: 49%
  Relative STD NMR effect, H7: 30%
  Relative STD NMR effect, H8: 30%
  Relative STD NMR effect, H9: 12%
  Relative STD NMR effect, H9′: 18%
  Relative STD NMR effect, NHAc: 41%
  Relative STD NMR effect, Triazole CH: 63%
LLC-MK2 cells
  Cytotoxic effect (MTT): No cytotoxic effect
hPIV-3 HN [6]
  IC50: 5.85 µM
hPIV-3 HN [4]; [11]
  IC50: 6.51 µM
hPIV-3 HN [4]; read-out: hPIV-3 HN NI IC50
  IC50: 6.5 µM

## CC(=O)NC1C(N=[N+]=[N-])C=C(C(=O)O)OC1C(O)C(O)CO (stereo not shown) [Compound 3, 4-azido-4-deoxy-Neu5Ac2en, reference compound]
hPIV-3 HN [3]; read-out: hPIV-3 HN HI IC50
  IC50: 210 µM
hPIV-3 HN [4]; [11]
  IC50: 138 µM

## COCc1cn([C@H]2C=C(C(=O)O)O[C@@H]([C@H](O)[C@H](O)CO)[C@@H]2NC(=O)C(C)C)nn1 [Compound 9, Sodium 2,6-anhydro-3,4,5-trideoxy-5-isobutyramido-4-(4-methoxymethyl-[1,2,3,]triazol-1-yl)-D-glycero-D-galacto-non-2-enonate]
hPIV-3 HN [3]; [10]
  IC50: 13.8 µM
hPIV-3 HN [3]; read-out: hPIV-3 HN HI IC50
  IC50: 13.8 µM
hPIV-1 NI
  IC50: 0.489 µM
hPIV-3 HN [6]
  IC50: 13.1 µM
hPIV-3 HN [4]; [11]
  IC50: 14.2 µM
hPIV-3 HN [4]; read-out: hPIV-3 HN NI IC50
  IC50: 14.2 µM

## CC(C)C(=O)NC1C(N=[N+]=[N-])C(F)C(F)(C(=O)O)OC1[C@H](O)[C@H](O)CO (stereo partly shown) [I-70]
hPIV-3 [1]; [9]
  IC50: 14 µM
hPIV-3 HN [2]; Table 4
  IC50: 6 µM

## CC(C)C(=O)N[C@H]1[C@H]([C@H](O)[C@H](O)CO)OC(C(=O)O)=C[C@@H]1N=[N+]=[N-] [Compound 6, BCX 2798, reference compound]
hPIV-3 HN [3]; read-out: HI Mean IC50
  IC50: 16.1 µM
hPIV-3 HN [3]; read-out: hPIV-3 HN HI IC50
  IC50: 16.1 µM
hPIV-3 HN [7]
  Ki: 16 µM
hPIV-3 [1]; LLC-MK2, A549 and NHBE cells, read-out: Virus growth inhibition IC50, range over all three cell lines
  IC50: 54.6 to 131 µM
hPIV-3 [1]; LLC-MK2 cells, read-out: Virus growth IC50 (in situ ELISA)
  IC50: 54.6 ± 3.8 µM
hPIV-3 [1]; NHBE cells, read-out: Virus growth IC50 (in situ ELISA)
  IC50: 79.3 ± 1 µM
hPIV-3 [1]; Table 4, A549 cells, hPIV-3, read-out: Cell-based ELISA IC50
  IC50: 130 µM
hPIV-3 [5]; 2 μM inhibitor, 48 h, LLC-MK2 cells, low MOI
  Virus growth inhibition (reduction in virus titre): 14%
hPIV-3 HN [2]
  IC50: 18 µM
hPIV-3 HN [4]; read-out: NI Mean IC50
  IC50: 21.5 µM
hPIV-3 HN [4]; read-out: hPIV-3 HN NI IC50
  IC50: 21.5 µM
